Results reported in patent publication US6737383B1, “Herbicidal oxadiazolidines” (priority 1999, dated 2004).

Columns and labels:
bedstraw = test: Test B pre/postemergence bedstraw; format: in vivo, Galium aparine
Summary of the method: (§1)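 Herbicidal effect was estimated by eye on a ten-point control scale after plants spent twelve to sixteen days in a greenhouse following soil or foliar treatment. Foliar sprays targeted plants at one to four leaves; all doses were formulated in a non-phytotoxic solvent with surfactant.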

blackgrass = test: Test B pre/postemergence blackgrass; format: in vivo, Alopecurus myosuroides
Summary of the method: as §1

surinam grass = test: Test B pre/postemergence surinam grass; format: in vivo, Brachiaria decumbens
Summary of the method: as §1

cocklebur = test: Test B pre/postemergence cocklebur; format: in vivo, Xanthium strumarium
Summary of the method: as §1

corn = test: Test B pre/postemergence corn; format: in vivo, Zea mays
Summary of the method: as §1

crabgrass = test: Test B pre/postemergence crabgrass; format: in vivo, Digitaria sanguinalis
Summary of the method: as §1

giant foxtail = test: Test B pre/postemergence giant foxtail; format: in vivo, Setaria faberii
Summary of the method: as §1

morningglory = test: Test B pre/postemergence morningglory; format: in vivo, Ipomoea hederacea
Summary of the method: as §1

pigweed = test: Test B pre/postemergence pigweed; format: in vivo, Amaranthus retroflexus
Summary of the method: as §1

rape = test: Test B pre/postemergence rape; format: in vivo, Brassica napus
Summary of the method: as §1

soybean = test: Test B pre/postemergence soybean; format: in vivo, Glycine max; conditions: Preemergence
Summary of the method: as §1

sugar beet = test: Test B pre/postemergence sugar beet; format: in vivo, Beta vulgaris; conditions: Preemergence
Summary of the method: as §1

velvetleaf = test: Test B pre/postemergence velvetleaf; format: in vivo, Abutilon theophrasti; conditions: Preemergence
Summary of the method: as §1

wheat = test: Test B pre/postemergence wheat; format: in vivo, Triticum aestivum; conditions: Preemergence
Summary of the method: as §1

wild oat = test: Test B pre/postemergence wild oat; format: in vivo, Avena fatua; conditions: Preemergence
Summary of the method: as §1

purple nutsedge = test: Test B pre/postemergence purple nutsedge; format: in vivo, Cyperus rotundus
Summary of the method: as §1

rice = test: Test B flood test rice; format: in vivo, Oryza sativa
Summary of the method: (§2)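 Read-out is a visual response score from 0 (no effect) to 10 (complete control), assigned by comparison with untreated controls. Treatment was applied at the 2-leaf stage, and plants stayed in the greenhouse for twelve to sixteen days before scoring.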

smallflower flatsedge = test: Test B flood test smallflower flatsedge; format: in vivo, Cyperus difformis
Summary of the method: as §2

duck salad = test: Test B flood test duck salad; format: in vivo, Heteranthera limosa
Summary of the method: as §2

bamyardgrass = test: Test B flood test barnyardgrass; format: in vivo, Echinochloa crus-galli
Summary of the method: as §2

[1] = Preemergence, Rate 31 g/ha, visual rating, scale 0 to 10 (0 no effect, 10 complete control)
[2] = Preemergence, Rate 62 g/ha, scale of 0 to 10 where 0 is no effect and 10 is complete control
[3] = Preemergence, Rate 250 g/ha, scale of 0 to 10 where 0 is no effect and 10 is complete control
[4] = Rate 31 g/ha, Postemergence, scale 0 to 10
[5] = Rate 62 g/ha, Postemergence, scale of 0 to 10 where 0 is no effect and 10 is complete control
[6] = Rate 125 g/ha, Postemergence, scale 0 to 10
[7] = Rate 125 g/ha, Preemergence, scale of 0 to 10 where 0 is no effect and 10 is complete control
[8] = Rate 31 g/ha, visual rating, scale 0 to 10 (0 no effect, 10 complete control)
[9] = Rate 62 g/ha, scale of 0 to 10 where 0 is no effect and 10 is complete control
[10] = Rate 250 g/ha, scale of 0 to 10 where 0 is no effect and 10 is complete control
[11] = Rate 125 g/ha, scale of 0 to 10 where 0 is no effect and 10 is complete control
[12] = Rate 62 g/ha, headed Pre-emergence (flood test species), scale 0 to 10 (0 no effect, 10 complete control)
[13] = Rate 125 g/ha, Pre-emergence, flood test species, scale 0 to 10 where 0 is no effect and 10 is complete control
[14] = Rate 250 g/ha, Pre-emergence, flood-test species, scale 0 to 10, 0 is no effect, 10 is complete control
[15] = Rate 500 g/ha, Pre-emergence, flood test species, scale 0 to 10 (0 no effect, 10 complete control)

## CCN(CC)C(=O)Cn1c(=O)on(C(=O)N(c2ccc(F)cc2)C(C)C)c1=O [Compound 264]
bedstraw; [1]
  Bedstraw plant response rating: 0
bedstraw; [2]
  Bedstraw plant response rating: 0
bedstraw; [3]
  Bedstraw plant response rating: 0
bedstraw; [4]
  Bedstraw plant response rating: 0
bedstraw; [5]
  Bedstraw plant response rating: 0
bedstraw; [6]
  Bedstraw plant response rating: 6
bedstraw; [7]
  Bedstraw plant response rating: 0
bedstraw; Rate 250 g/ha, Postemergence
  Plant response rating (0 to 10; 0 is no effect, 10 is complete control), Bedstraw: 6
blackgrass; [1]
  Blackgrass plant response rating: 0
blackgrass; [2]
  Blackgrass plant response rating: 0
blackgrass; [3]
  Blackgrass plant response rating: 4
blackgrass; [4]
  Blackgrass plant response rating: 0
blackgrass; [5]
  Blackgrass plant response rating: 2
blackgrass; [6]
  Blackgrass plant response rating: 2
blackgrass; [7]
  Blackgrass plant response rating: 0
blackgrass; Rate 250 g/ha, Postemergence
  Plant response rating (0 to 10; 0 is no effect, 10 is complete control), Blackgrass: 3
Surinam grass; [1]
  B. signalgrass plant response rating: 0
Surinam grass; [2]
  B. signalgrass plant response rating: 0
Surinam grass; [3]
  B. signalgrass plant response rating: 5
Surinam grass; [4]
  B. signalgrass plant response rating: 0
Surinam grass; [5]
  B. signalgrass plant response rating: 0
Surinam grass; Rate 125 g/ha, Postemergence, scale 0 (no effect) to 10 (complete control)
  B. signalgrass plant response rating: 0
Surinam grass; [7]
  B. signalgrass plant response rating: 0
Surinam grass; Rate 250 g/ha, Postemergence
  Plant response rating (0 to 10; 0 is no effect, 10 is complete control), B. signalgrass: 0
cocklebur; [1]
  Cocklebur plant response rating: 0
cocklebur; [2]
  Cocklebur plant response rating: 0
cocklebur; [3]
  Cocklebur plant response rating: 0
cocklebur; [4]
  Cocklebur plant response rating: 0
cocklebur; [5]
  Cocklebur plant response rating: 0
cocklebur; [6]
  Cocklebur plant response rating: 0
cocklebur; [7]
  Cocklebur plant response rating: 0
cocklebur; Rate 250 g/ha, Postemergence
  Plant response rating (0 to 10; 0 is no effect, 10 is complete control), Cocklebur: 0
corn; [1]
  Corn plant response rating: 0
corn; [2]
  Corn plant response rating: 0
corn; [3]
  Corn plant response rating: 0
corn; [4]
  Corn plant response rating: 0
corn; [5]
  Corn plant response rating: 0
corn; [6]
  Corn plant response rating: 0
corn; [7]
  Corn plant response rating: 0
corn; Rate 250 g/ha, Postemergence
  Plant response rating (0 to 10; 0 is no effect, 10 is complete control), Corn: 0
crabgrass; [1]
  Crabgrass plant response rating: 0
crabgrass; [2]
  Crabgrass plant response rating: 0
crabgrass; [3]
  Crabgrass plant response rating: 3
crabgrass; [4]
  Crabgrass plant response rating: 0
crabgrass; [7]
  Crabgrass plant response rating: 2
crabgrass; Rate 250 g/ha, Postemergence
  Plant response rating (0 to 10; 0 is no effect, 10 is complete control), Crabgrass: 0
Giant foxtail; [1]
  Giant foxtail plant response rating: 0
Giant foxtail; [2]
  Giant foxtail plant response rating: 2
Giant foxtail; [3]
  Giant foxtail plant response rating: 7
Giant foxtail; [4]
  Giant foxtail plant response rating: 0
Giant foxtail; [7]
  Giant foxtail plant response rating: 7
Giant foxtail; Rate 250 g/ha, Postemergence
  Plant response rating (0 to 10; 0 is no effect, 10 is complete control), Giant foxtail: 0
morningglory; [1]
  Morningglory plant response rating: 0
morningglory; [2]
  Morningglory plant response rating: 0
morningglory; [3]
  Morningglory plant response rating: 0
morningglory; [4]
  Morningglory plant response rating: 6
morningglory; [7]
  Morningglory plant response rating: 0
morningglory; Rate 250 g/ha, Postemergence
  Plant response rating (0 to 10; 0 is no effect, 10 is complete control), Morningglory: 10
pigweed; [1]
  Redroot pigweed plant response rating: 0
pigweed; [2]
  Redroot pigweed plant response rating: 0
pigweed; [3]
  Redroot pigweed plant response rating: 0
pigweed; [4]
  Redroot pigweed plant response rating: 0
pigweed; [7]
  Redroot pigweed plant response rating: 0
pigweed; Rate 250 g/ha, Postemergence
  Plant response rating (0 to 10; 0 is no effect, 10 is complete control), Redroot pigweed: 0
rape; [1]
  Rape plant response rating: 0
rape; [2]
  Rape plant response rating: 0
rape; [3]
  Rape plant response rating: 0
rape; [4]
  Rape plant response rating: 0
rape; [7]
  Rape plant response rating: 0
rape; Rate 250 g/ha, Postemergence
  Plant response rating (0 to 10; 0 is no effect, 10 is complete control), Rape: 0
soybean; [8]
  Soybean plant response rating: 0
soybean; [9]
  Soybean plant response rating: 0
soybean; [10]
  Soybean plant response rating: 3
soybean; [11]
  Soybean plant response rating: 0
Sugar beet; [8]
  Sugarbeets plant response rating: 0
Sugar beet; [9]
  Sugarbeets plant response rating: 0
Sugar beet; [10]
  Sugarbeets plant response rating: 1
Sugar beet; [11]
  Sugarbeets plant response rating: 0
velvetleaf; [8]
  Velvetleaf plant response rating: 0
velvetleaf; [9]
  Velvetleaf plant response rating: 0
velvetleaf; [10]
  Velvetleaf plant response rating: 0
velvetleaf; [11]
  Velvetleaf plant response rating: 0
wheat; [8]
  Wheat plant response rating: 0
wheat; [9]
  Wheat plant response rating: 0
wheat; [10]
  Wheat plant response rating: 2
wheat; [11]
  Wheat plant response rating: 0
Wild oat; [8]
  Wild oats plant response rating: 0
Wild oat; [9]
  Wild oats plant response rating: 2
Wild oat; [10]
  Wild oats plant response rating: 5
Wild oat; [11]
  Wild oats plant response rating: 4
Purple nutsedge; [1]
  Nutsedge plant response rating: 0
Purple nutsedge; [3]
  Nutsedge plant response rating: 0
Purple nutsedge; [4]
  Nutsedge plant response rating: 0
Purple nutsedge; Rate 250 g/ha, Postemergence
  Plant response rating (0 to 10; 0 is no effect, 10 is complete control), Nutsedge: 0
rice; [12]
  Rice plant response rating: 0
rice; [13]
  Rice plant response rating: 0
rice; [14]
  Rice plant response rating: 0
rice; [15]
  Rice plant response rating: 1
Smallflower flatsedge; [12]
  S. Flatsedge plant response rating: 0
Smallflower flatsedge; [13]
  S. Flatsedge plant response rating: 0
Smallflower flatsedge; [14]
  S. Flatsedge plant response rating: 0
Smallflower flatsedge; [15]
  S. Flatsedge plant response rating: 0
Duck salad; [12]
  Ducksalad plant response rating: 0
Duck salad; [13]
  Ducksalad plant response rating: 0
Duck salad; [14]
  Ducksalad plant response rating: 0
Duck salad; [15]
  Ducksalad plant response rating: 0
bamyardgrass; [12]
  Barnyardgrass plant response rating: 0
bamyardgrass; [13]
  Barnyardgrass plant response rating: 0
bamyardgrass; [14]
  Barnyardgrass plant response rating: 0
bamyardgrass; [15]
  Barnyardgrass plant response rating: 0
